Data: patent US12594278B2, “Method for treatment of muscular dystrophy” (CHILDREN'S NATIONAL MEDICAL CENTER, priority 2019, dated 2026)

Test system: B6A/J mice
Experiment: 10-week batimastat treatment of 12Mo B6A/J mice, gastrocnemius histopathology
Type: in vivo, mouse
Experimental: Whether this effect of batimastat to repress FAP adipogenesis can improve muscle histopathology was tested in vivo. 12Mo B6A/J mice were treated for 10 weeks with batimastat (2 mg/kg i.p. 3× weekly). […] To determine if this reduction in adipogenic replacement was due to an effect on just FAP differentiation or also on FAP proliferation, FAP accumulation was quantified by PDGFRα labeling and no effect of batimastat treatment on FAP number was found (FIG. 12). […] Thus, inhibition of adipogenesis by batimastat is not due to reduced FAP numbers or improved myofiber repair. To further confirm the ability of batimastat to prevent dysferlinopathic muscle from injury-triggered FAP adipogenesis, we employed the repeat notexin-induced TA injury approach which induces significant adipogenic replacement of the muscle (FIG. 6D and FIG. 6E). […] Given that FAP numbers are unaffected by batimastat treatment, it was examined whether these batimastat treatment causes cells to adopt a fibrogenic fate by blocking their adipogenic differentiation. However, no change in intra-muscular fibrosis was observed as a result of batimastat treatment in either the gastrocnemius or injured TA (FIG. 12). Taken together, the above results both confirm the essential nature of FAP adipogenesis for the adipogenic conversion of dysferlinopathic muscle, and highlight the potential of batimastat to arrest the progressive and even late stage adipogenic replacement of dysferlinopathic muscle.
Immunohistochemical Analysis of Muscle Sections. Frozen sections 8 μm thick were cut from human biopsies and the midbelly of mouse muscles. Lipid was visualized using an Oil Red O staining kit (American MasterTech, #KTORO) according to manufacturer's instructions. […]
Microscopy and Image Analysis. […] Perilipin-1 quantification was performed by thresholding the image to exclude non-specific staining and then calculating the area of each lipid deposit encircled by perlipin-1 (excluding those in the epi- or perimysium) using MetaMorph software (Molecular Devices). The total area encircled by perilipin-1 was calculated for all lipid deposits across the muscle and expressed relative to the total cross-sectional area. PDGFRα and AnxA2 positive area was calculated using CellSens software (Olympus) by thresholding to remove non-specific staining and calculating the total positive area (again, excluding any epi- or perimysial staining) relative to the entire muscle cross-section.
For in vivo studies, 12Mo B6A/J mice were treated thrice weekly with batimastat (Sigma-Aldridge, #SML0041), 2 mg/kg i.p. for 10 weeks. At the end of the treatment period, the effect of batimastat on disease pathology was evaluated by quantification of perilipin-1 marked lipid area in the gastrocnemius and compared to untreated controls. […]

[1] = 12Mo B6A/J mice, 2 mg/kg i.p. 3× weekly for 10 weeks

For CNC(=O)[C@H](Cc1ccccc1)NC(=O)[C@H](CC(C)C)[C@H](CSc1cccs1)C(=O)NO [batimastat], the “FAP number (PDGFRα labeling) in gastrocnemius” value [1] was “no effect”, the “extent of myofiber central nucleation” value [1] was “did not decrease” and the “perilipin-1 labeled area in gastrocnemius” value (12Mo B6A/J mice, 2 mg/kg i.p. 3× weekly for 10 weeks, vs untreated mice) was “significantly reduced”. For the same compound, the “intra-muscular fibrosis in gastrocnemius (Masson's trichrome)” value (batimastat 2 mg/kg i.p. 3× weekly for 10 weeks) was “no change”.
